The text below walks through data of US10925851B2 (Regents of the University of Minnesota, priority 2018, dated 2021).

“And” between values parts separate entries of the source, which are not always exact repeats. Equal values may be shown once. Read-outs that look alike come from different tables or passages of the source. Bounds are passed on as bounds.

The target of one assay is T1, Aminopeptidase N (APN) (Homo sapiens, UniProt P15144).
T1 construct: purchased R&D Systems
Description: Aminopeptidase N enzyme assay (Ala-AMC substrate, fluorescence). The settings on record: for IC50: dose response, 3x dilutions from 100 μM; for inhibition at 10 µM: inhibitor 10 μM, read-out: APN @ 10 μM (percent inhibition). Type of assay: biochemical. The procedure:
Single concentration studies at 10 μM: Aminopeptidase N assays were performed as described previously. Aminopeptidase N was purchased from R&D Systems. Amino-4-methylcoumarin (Ala-AMC) was purchased from Bachem. Briefly, 0.1 μg/μL APN was incubated with 1 μL of 1 mM inhibitor in 50 mM Tris buffer, pH 7.5, in 100 μL volume in a black 384-well plate in duplicate. The reaction was started with the addition of Ala-AMC substrate at a final concentration of 100 μM. The cleavage accumulation AMC was measured by exciting at 380 nm and reading the fluorescence at 460 nm on a Molecular Devices SpectraMax i3 plate reader for 20 min at room temperature. Percent inhibition is calculated in GraphPad Prism software using slopes in the linear range for each inhibitor at 10 μM.
Dose-Response Studies for APN: Aminopeptidase N enzyme assays were performed as described previously.^26 Briefly, 0.1 μg/μL APN was incubated with 1 μL inhibitor in 50 mM Tris buffer, pH 7.5, in 50 μL volume in a black 384-well plate in duplicate. Compounds were tested at 3× dilutions from 100 μM final concentration. The reaction was started with the addition of Ala-AMC substrate at a final concentration of 100 μM. The accumulation of AMC was measured by exciting at 380 nm and reading the fluorescence at 460 nm on a Molecular Devices SpectraMax i3 plate reader for 30 min at room temperature. Steady state velocities were used to determine IC50 values by fitting the velocities vs. inhibitor concentration to the sigmoidal concentration-response curve (variable slope) using GraphPad Prism.

Another assay has as its target T2, Neprilysin (NEP) (Homo sapiens, UniProt P08473).
T2 construct: purchased Enzo Life Sciences
Description: Neprilysin inhibition assay (Mca-[…](Dpn) FRET substrate). The format is biochemical. The settings on record: for IC50: dose response, 3x dilutions from 100 μM; for inhibition at 10 µM: inhibitor 10 μM, read-out: NEP @ 10 μM (percent inhibition). As to the method: Single concentration studies at 10 μM: Neprilysin inhibition assays were performed as described previously. The substrate Mca-[…](Dpn) and endopeptidase NEP were purchased from Enzo Life Sciences. […] Plate was mixed with a plate shaker at 1500 rpm for 30 seconds. The reaction was started with the addition of 6 μM of the FRET substrate and mixed for another 30 seconds at 1500 rpm. Mca fluorescence is quenched by Dpn until cleavage at Phe by NEP. The accumulation of the Mca was measured by exciting at 320 nm and reading the fluorescence at 405 nm on a Molecular Devices M5e plate reader for 40 minutes at room temperature. Percent inhibition is calculated in GraphPad Prism software using slopes in the linear range for each inhibitor at 10 μM.
Dose-Response Studies for NEP: Neprilysin inhibition assays were performed as described previously. The substrate Mca-[…](Dpn) and endopeptidase NEP were purchased from Enzo Life Sciences. Briefly, 0.5 nM NEP was incubated with 0.5 μL inhibitor. Compounds were tested at 3× dilutions from 100 μM final concentration in 50 mM HEPES pH 6.5 in 50 μL total volume in a black 384-well plate. Plate was mixed with a plate shaker at 1500 rpm for 30 seconds. The reaction was started with the addition of 6 μM of the FRET substrate and mixed for another 30 seconds at 1500 rpm. Mca fluorescence is quenched by Dpn until cleavage at Phe by NEP. The accumulation of the Mca was measured by exciting at 320 nm and reading the fluorescence at 405 nm on a Molecular Devices M5e plate reader for 40 minutes at room temperature. Steady state velocities were used to determine IC50 values by fitting the velocities vs. inhibitor concentration to the sigmoidal concentration-response curve (variable slope) using GraphPad Prism.

Assay [1] has as its system mice. Briefly: Combination therapy with morphine, isobolographic analysis in tail-flick assay. The conditions noted are these: for Dose Reduction Index (DRI) Morphine: in combination with tosedostat, 50% efficacy; for ED50: Mus musculus, sc.
The test system of assay [2] is mice. Description: Co-administration of opioid antagonist naloxone in hot-plate and tail-flick assays. The format is in vivo, mouse. The conditions noted are these: naloxone s.c. 5 mg/Kg or i.c.v. 5 μg per mouse. The procedure: Naloxone dissolved in saline was either administered subcutaneously (s.c.; dosage: 5 mg/Kg) via an injection to the interscapular skin, or it was given intracerebroventricularly (5 μg per mouse).
Naloxone is a broad-spectrum opioid receptor antagonist. It is known to interact with, mu- (μ-), delta- (δ-), and kappa- (κ-) opioid receptors, with highest affinity for the μ receptors. […] Naloxone dissolved in saline was delivered subcutaneously (s.c.) via an injection to the interscapular skin.
5 mg/Kg naloxone dissolved in saline was administered subcutaneously (s.c.) via an injection to the interscapular skin. Analgesic efficacy for various time-points was determined in hot-plate and tail-flick assays as detailed above.

T2 sequence (P08473 whole entry, species assumed): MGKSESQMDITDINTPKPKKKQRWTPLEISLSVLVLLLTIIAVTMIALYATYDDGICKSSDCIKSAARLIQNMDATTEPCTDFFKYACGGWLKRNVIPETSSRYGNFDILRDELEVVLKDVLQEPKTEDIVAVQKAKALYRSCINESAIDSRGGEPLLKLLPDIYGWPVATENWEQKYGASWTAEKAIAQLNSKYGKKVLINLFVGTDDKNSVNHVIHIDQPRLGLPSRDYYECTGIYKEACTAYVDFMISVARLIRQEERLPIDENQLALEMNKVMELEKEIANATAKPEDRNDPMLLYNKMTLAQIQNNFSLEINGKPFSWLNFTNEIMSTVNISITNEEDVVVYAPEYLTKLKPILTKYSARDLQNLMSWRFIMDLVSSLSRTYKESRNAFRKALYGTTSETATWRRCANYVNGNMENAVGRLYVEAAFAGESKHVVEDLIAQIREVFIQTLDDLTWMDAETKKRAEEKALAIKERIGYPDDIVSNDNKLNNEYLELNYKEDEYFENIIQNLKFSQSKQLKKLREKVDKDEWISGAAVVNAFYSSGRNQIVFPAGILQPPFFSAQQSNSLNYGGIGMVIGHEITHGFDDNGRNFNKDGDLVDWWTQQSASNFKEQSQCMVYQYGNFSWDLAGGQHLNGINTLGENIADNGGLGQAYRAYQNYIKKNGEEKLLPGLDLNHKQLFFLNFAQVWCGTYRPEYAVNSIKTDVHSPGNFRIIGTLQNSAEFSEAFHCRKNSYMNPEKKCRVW
T1 sequence (P15144 whole entry): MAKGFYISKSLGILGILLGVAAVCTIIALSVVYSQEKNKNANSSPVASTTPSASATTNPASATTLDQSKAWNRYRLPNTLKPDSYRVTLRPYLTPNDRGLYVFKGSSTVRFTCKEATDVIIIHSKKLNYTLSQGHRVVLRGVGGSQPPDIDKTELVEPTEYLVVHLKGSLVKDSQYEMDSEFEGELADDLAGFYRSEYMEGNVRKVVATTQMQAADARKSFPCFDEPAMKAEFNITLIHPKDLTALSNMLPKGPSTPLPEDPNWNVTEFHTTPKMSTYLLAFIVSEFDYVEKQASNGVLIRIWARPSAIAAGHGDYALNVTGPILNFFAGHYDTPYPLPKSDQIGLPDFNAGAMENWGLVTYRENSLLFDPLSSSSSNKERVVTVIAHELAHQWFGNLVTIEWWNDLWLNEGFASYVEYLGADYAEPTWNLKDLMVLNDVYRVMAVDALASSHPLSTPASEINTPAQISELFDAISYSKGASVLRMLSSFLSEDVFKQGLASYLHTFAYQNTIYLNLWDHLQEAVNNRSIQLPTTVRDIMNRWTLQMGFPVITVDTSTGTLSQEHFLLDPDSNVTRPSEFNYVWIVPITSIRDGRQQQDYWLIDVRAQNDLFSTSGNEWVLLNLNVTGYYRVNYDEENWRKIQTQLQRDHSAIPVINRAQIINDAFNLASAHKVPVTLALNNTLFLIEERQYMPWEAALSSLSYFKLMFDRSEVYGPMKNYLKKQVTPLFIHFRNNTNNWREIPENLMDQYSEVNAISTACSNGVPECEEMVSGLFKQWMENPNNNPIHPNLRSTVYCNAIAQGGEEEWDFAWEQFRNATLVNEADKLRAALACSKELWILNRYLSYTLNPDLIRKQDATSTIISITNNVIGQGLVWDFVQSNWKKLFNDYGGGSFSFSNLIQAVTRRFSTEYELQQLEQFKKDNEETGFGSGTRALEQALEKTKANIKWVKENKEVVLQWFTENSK

The IC50 is the point on the concentration scale where inhibition reaches its midpoint. A low value points to greater potency in that assay. As usually defined, the inhibition is how much of the control response was suppressed. As to `CNC(=O)[C@H](Cc1ccccc1)NC(=O)[C@H](CC(C)C)[C@H](CSc1cccs1)C(=O)NO` [Batimastat], at Aminopeptidase N (APN), the “activity against APN (in words)” value was “inhibit both APN and NEP”; the 50% inhibitory concentration (IC50) was 210 nM and 212 nM. At Neprilysin (NEP), the “activity against NEP (in words)” value is “inhibit both APN and NEP”; the IC50 turned out to be 4.48 µM; the inhibition at 10 µM turned out to be 60%.

Turning to `CC(C)C[C@H](NC(=O)[C@@H](O)[C@H](N)Cc1ccccc1)C(=O)O` [Bestatin], at Aminopeptidase N (APN), the “activity against APN (in words)” value is on record as “inhibiting only APN” and the inhibition at 10 µM is 77.6%. In addition, at Neprilysin (NEP), the “activity against NEP (in words)” value was “no activity against NEP”, the IC50 was over 100 µM and the inhibition at 10 µM stood at 0%.

What is called ED50 is the dose at which the effect has come halfway, by size or by number of responders. `CN1CC[C@]23c4c5ccc(O)c4O[C@H]2[C@@H](O)C=C[C@H]3[C@H]1C5` [Morphine]: the “Dose Reduction Index (DRI) Morphine” value in the assay on mice [1] (15 min) was found to be 4.47; with mice [1] (30 min) it was 1.96; with mice [1] (45 min), 2.43; with mice [1] (60 min) it was 17.0; in the assay with mice [1] (60 min, listed as morphine) it was 17. Further, the ED50 with mice [1] (0.25 h, read-out: Morphine ED50 (±SEM)) is 6.29 ± 12.7 mg/kg; in the assay on mice [1] (0.5 h, read-out: Morphine ED50 (±SEM)), 3.52 ± 7.2 mg/kg; with mice [1] (0.75 h, read-out: Morphine ED50 (±SEM)), 3.87 ± 2.04 mg/kg; in the assay with mice [1] (1 h, read-out: ED50, given alone), 2.5 to 3 mg/kg; in the assay with mice [1] (1 h, read-out: Morphine ED50 (±SEM)) it was 30 ± 204 mg/kg.

Take `C=CCN1CC[C@]23c4c5ccc(O)c4O[C@H]2C(=O)CC[C@@]3(O)[C@H]1C5` [Naloxone]: in the assay on mice [2], the “effect on latency, naloxone only groups” value is on record as “no effect on latency”.

Consider `O=C(O)CNC(=O)C(CS)Cc1ccccc1` (centres unmarked) [Thiorphan], for which, on Aminopeptidase N (APN), the “activity against APN (in words)” value is listed as “no activity against APN”, the IC50 was over 100000 nM and the inhibition at 10 µM was 0%. For the same compound, at Neprilysin (NEP), the “activity against NEP (in words)” value was “inhibited only NEP” and the inhibition at 10 µM was 90%.
